Patent US9051248B2, “Methods, compounds, and compositions for delivering 1,3-propanedisulfonic acid” (BHI Limited Partnership, priority 2009, dated 2015)

Tests used:
[1] = Water stability (conversion of prodrug to 1,3PDS); type: physicochemical; conditions: deionized water; for Conversion to 1,3PDS (%) 1 h / Conversion to 1,3PDS (%) 2 h: 37° C.; for Conversion to 1,3PDS (%) 0 h / Conversion to 1,3PDS (%) 24 h: room temperature; for Conversion to 1,3PDS (%) 0 h: 200 μg/mL
Procedure: The objective of this test was to determine the stability of the prodrugs in simulated gastric fluid (SGF) and water at 37° C. up to 2 hours and in water at room temperature up to 24 hours.
Simulated gastric fluid and water samples were incubated in a shaking water bath at 37° C. for up to 2 hours. The compound (prodrug) was added at Time-point 0. At each selected time point (refer to table), sample aliquots were withdrawn and analyzed to determine the concentration of 1,3-propanedisulfonic acid (1,3PDS). The concentrations of 1,3PDS were calculated based on their respective peak area. The % appearance of 1,3PDS was determined by the amounts of compound determined at each time point compared to nominal concentration (100%) of 1,3PDS generated by 100% of the prodrug (equivalent concentration).
A fresh stock solution at approximately 2 mg/mL of the compound was prepared. One stability solution at 200 μg/mL in the SGF was prepared (sample referred to as Tube A). A stability solution at 200 μg/mL in deionized water was prepared (sample referred to as Tube B). Immediately after preparation, each 200 μg/mL solution was diluted in triplicates to 20 μg/mL in deionized water and analyzed using LC-MS/MS method (Time-point 0). Thereafter, the incubation of tubes A and B was continued in the shaking water bath at 37° C. for 1 and 2 hours while one aliquot of tube B was kept at room temperature for 24 hours. At each specific time point of incubation, 3 aliquots (triplicate) of 50 μL were removed, diluted in 450 μL of water and analyzed using LC-MS/MS method. In parallel, 3 reference samples of 1,3PDS at 100, 10 and 1 μg/mL were prepared, diluted in triplicate in water and injected at the beginning and at the end of the batch. These samples were considered as reference samples.
(§1) The concentrations of 1,3PDS were calculated based on response of the reference samples and their respective peak area response. The % appearance of 1,3PDS was determined by the amounts of compound determined at each time point compared to expected nominal concentration (100%) of 1,3PDS generated by 100% of the prodrug (equivalent concentration).

[2] = Human whole blood stability; type: in vitro ADME; conditions: fresh human whole blood, 37° C., about 100 μg/mL, 0 h
Procedure: The objective of this test was to determine the stability of the prodrugs in fresh human whole blood at different time-points (0, 0.5, 1, 4, 24 hours). Blood samples were incubated in a shaking water bath at 37° C. for up to 24 hours. The compound (prodrug) was added at Time-point 0, and sample aliquots were withdrawn and analyzed at each time point to determine the concentration of 1,3PDS. If possible, the loss of compound was determined by the amounts of compound determined at each time point compared to the amount determined at Time-point 0. To eliminate the conversion due to the matrix, a special Time-point 0 was prepared in pre-extracted blood sample.
Approximately 2.5 mL of whole blood was incubated in a gently shaking water bath at 37° C. for 15 minutes. Two (2) mL of the pre-incubated whole blood were aliquoted in an eppendorf tube. A 100 μL aliquot of blood was removed and 100 μL of the compound Stock Solution was added. The solution was mixed by inversion. This sample was referred to as Tube A. The final concentration of the compound in tube A was approximately at 100 μg/mL. Immediately after mixing, 100 μL of Tube A was aliquotted into 3 different eppendorf tubes. These samples were extracted as described in the “Extraction Procedure” Section. These samples were referred to Time-point 0. Thereafter, the incubation of Tube A was continued in the shaking water bath at 37° C. for 0.5, 1, 4 and 24 hours. At each specific time point of incubation, aliquots (triplicate) of 100 μL were removed and extracted as described in the “Extraction Procedure” Section. To avoid potential further degradation of compound and/or possible degradation products, the aliquot extracts were kept on ice until analysis. After extraction, samples were analyzed using LC-MS/MS method.
A volume of 300 μL of cold-ice acetonitrile was added to a 1.5 mL eppendorf tube and kept on ice until utilization. 100 μL of the sample to be extracted was added and the mix was vortexed (acetonitrile and blood). The sample was centrifuged at 16250×g (13200 rpm on IEC centrifuge with eppendorf rotor) for 5 minutes. A volume of 250 μL of the supernatant was transferred to another tube and evaporated to dryness under a nitrogen stream. The residue was reconstituted with the mobile phase. This sample was then analyzed according to 1,3PDS specific methods.
as §1, with “the nominal concentration” for “response”, “calibration standards” for “reference samples”, “ratio. A linear regression using a weight of 1/x^2 is used to derive the concentration of 1,3PDS.” for “response.”, “to” for “to expected”

[3] = In vivo study in ferrets (clinical signs after oral gavage); conditions: male ferrets, oral administration, standard dose as printed
Procedure: One group of three male non-naïve ferrets (domestic strain, >16 weeks, >1.2 Kg) were starved for approximately 1.5 h prior to administration of a dosing formulation. Food was given 2 hours post dose. […] The dosing volume was adjusted to 5 mL/kg. Clinical signs were recorded throughout the study period. […] Plasma samples were stored frozen at −80° C. pending transfer to analysis. An aliquot of dosing solution (0.5 mL) was taken prior to dosing and stored frozen at −20° C. pending transfer to analysis. Animals used for multiple studies after a wash out of a minimum twelve day period.

[4] = test system: Salmonella typhimurium strains (TA1535, TA1537, TA98, TA100) and Escherichia coli strain WP2 uvrA; assay: Bacterial mutation tests (Ames test); type: cell-based; conditions: 1.58 to 5000 μg/plate, pre-incubation version; for Bacterial mutation test result in presence of S9: with S9 mix; for Bacterial mutation test result in absence of S9: without S9 mix
Procedure: Bacterial mutation tests were performed at Charles River Laboratories to evaluate the mutagenic potential of various prodrugs. Salmonella typhimurium strains (TA1535, TA1537, TA98, TA100) and Escherichia coli strain WP2 uvrA were treated with prodrugs at concentrations ranging from 1.58 to 5000 μg/plate in the presence and absence of a supplemented liver fraction (S9 mix) using the pre-incubation version of the bacterial mutation test. All concentrations of each compound were evaluated in triplicate. Bacteria were incubated with standard positive control agents, and the response of the various bacterial strains to these agents confirmed the sensitivity of the test system and the activity of the S9 mix.

Conversion to 1,3PDS (%) 1 h [1] [%]	Conversion to 1,3PDS (%) 2 h [1] [%]	Conversion to 1,3PDS (%) 0 h [1] [%]	Compound	Clinical signs / side effects in ferrets [3]	Bacterial mutation test result in presence of S9 [4]	Bacterial mutation test result in absence of S9 [4]	also measured
14.6	18.8	7.0	CC(C)(CNC(=O)[C@H](Cc1ccccc1)NC(=O)OC(C)(C)C)COS(=O)(=O)CCCS(=O)(=O)[O-].[Na+] [A52(K)]	–	–	–	Conversion to 1,3PDS (%) 24 h [1]: 21.3%
0.0	0.0	0.0	CC(C)(COS(=O)(=O)CCCS(=O)(=O)OCC(C)(C)C(=O)OCc1ccccc1)C(=O)OCc1ccccc1 [Compound B30]	–	–	–	Conversion to 1,3PDS (%) 24 h [1]: 0.0%; Conversion to 1,3PDS (% by molar ratio) 0 h [2]: BLLQ
–	–	–	CCC(=O)OCOS(=O)(=O)CCCS(=O)(=O)OCOC(=O)CC [Compound D7]	abdominal contracting and/or vomiting	–	–	–
–	–	–	CC(C)(COS(=O)(=O)CCCS(=O)(=O)OCC(C)(C)C(=O)O)C(=O)O [Compound B58]	vomiting	Positive	Positive	–
–	–	–	CCOC(=O)C(C)(N)COS(=O)(=O)CCCS(=O)(=O)O (stereo not shown) [Compound A61]	no clinical signs	Positive	Positive	–
–	–	–	CC1(COS(=O)(=O)CCCS(=O)(=O)OCC2(C)CCOC2=O)CCOC1=O (stereo not shown) [Compound B76]	no clinical signs	Negative	Negative	–
–	–	–	CC1(COS(=O)(=O)CCCS(=O)(=O)OCC2(C)CCC(=O)O2)CCC(=O)O1 (stereo not shown) [Compound B78]	–	Negative	Negative	–
–	–	–	O=C(OCOS(=O)(=O)CCCS(=O)(=O)OCOC(=O)C1CCCCC1)C1CCCCC1 [Compound D5]	abdominal contracting and/or vomiting	–	–	–
1.0	1.6	0.4	CC(C)(C)COS(=O)(=O)CCCS(=O)(=O)[O-].[Na+] [A6(Na)]	–	–	–	Conversion to 1,3PDS (%) 24 h [1]: 1.4%
0.0	0.0	0.0	CC(OC(=O)NCCC(C)(C)COS(=O)(=O)CCCS(=O)(=O)O)OC(=O)C(C)C (stereo not shown) [Compound A13]	–	–	–	Conversion to 1,3PDS (%) 24 h [1]: 0.0%
–	–	–	CC1(C)COC(=O)C1OS(=O)(=O)CCCS(=O)(=O)OC1C(=O)OCC1(C)C (stereo not shown) [Compound B77]	no clinical signs	Negative	Negative	–
0.4	0.4	0.3	CC(OC(=O)NCCC(C)(C)COS(=O)(=O)CCCS(=O)(=O)OCC(C)(C)CCNC(=O)OC(C)OC(=O)C(C)C)OC(=O)C(C)C (stereo not shown) [Compound B13]	–	–	–	–
–	–	–	CCOC(=O)C(OS(=O)(=O)CCCS(=O)(=O)OC(C(=O)OCC)C(C)C)C(C)C (stereo not shown) [Compound B83]	no clinical signs	Negative	Negative	–
–	–	–	CCOC(=O)C(OS(=O)(=O)CCCS(=O)(=O)OC(C(=O)OCC)C(C)(C)C)C(C)(C)C (stereo not shown) [Compound B82]	no clinical signs	–	–	–
–	–	–	CCCC(=O)OCOS(=O)(=O)CCCS(=O)(=O)OCOC(=O)CCC [Compound D3]	abdominal contracting and/or vomiting	–	–	–
–	–	–	CCOC(=O)CCC(C)(C)COS(=O)(=O)CCCS(=O)(=O)OCC(C)(C)CCC(=O)OCC [Compound B75]	2 out of 3 animals showed abdomen scratching but recovered after 1 h	Negative	Negative	–
0.0	0.0	0.0	CC(C)(CCOC(=O)c1ccccc1)COS(=O)(=O)CCCS(=O)(=O)OCC(C)(C)CCOC(=O)c1ccccc1 [Compound B23]	–	–	–	Conversion to 1,3PDS (%) 24 h [1]: 0.0%
–	–	–	CC(C)(C)C(=O)OCOS(=O)(=O)CCCS(=O)(=O)OCOC(=O)C(C)(C)C [Compound D1]	green face	–	–	–
–	–	–	CCOC(=O)C(C)(C)COS(=O)(=O)CCCS(=O)(=O)OCC(C)(C)C(=O)OCC [Compound B29]	no clinical signs	Positive	Negative	–
–	–	–	O=S1(=O)CCCS(=O)(=O)OCO1 [Compound C2]	severe toxicity	–	–	–
–	–	–	CCOC(=O)C(C)(C)C(C)OS(=O)(=O)CCCS(=O)(=O)OC(C)C(C)(C)C(=O)OCC (stereo not shown) [Compound B68]	–	Negative	Negative	–
0.0	0.0	0.0	CC(C)[C@H](N)C(=O)NCCC(C)(C)COS(=O)(=O)CCCS(=O)(=O)OCC(C)(C)CCNC(=O)[C@@H](N)C(C)C [Compound B14]	–	–	–	–
0.4	1.4	0.2	CC(C)[C@H](N)C(=O)NCCC(C)(C)COS(=O)(=O)CCCS(=O)(=O)O [Compound A14]	–	–	–	–

Compound	Conversion to 1,3PDS (%) 1 h [1] [%]	Conversion to 1,3PDS (%) 2 h [1] [%]	Conversion to 1,3PDS (%) 0 h [1] [%]	Clinical signs / side effects in ferrets [3]	Bacterial mutation test result in presence of S9 [4]	Bacterial mutation test result in absence of S9 [4]	also measured
CC(C)(CNC(=O)[C@@H](N)Cc1ccccc1)COS(=O)(=O)CCCS(=O)(=O)O [Compound A51]	14	18	13	no clinical signs	Negative	Negative	–
